Literature values as cited in patent US8563014B2, “Modafinil oral lyophilizate” (Teva Sante, priority 2004, dated 2013).

Assays:
[1] = system: mice; conditions: single administration
[2] = system: monkeys; conditions: single administration

For `NC(=O)C[S+]([O-])C(c1ccccc1)c1ccccc1` (centres unmarked) [modafinil, 2-(benzhydrylsulfinyl)acetamide], the Locomotor activity [1] is listed as “increased locomotor activity” and the Nocturnal activity [2] is listed as “increased nocturnal activity”.
